Laboratory results taken from paper PMC12522106 (Cancer Research Communications, 2025).

Columns and labels:
[1] = test system: sarcospheres derived from 143B, MG63.3-GFP, and LM7 cell lines; test: Sarcosphere resazurin metabolic activity, results stated across all three cell lines; format: cell-based, human; details: for effect on sarcosphere metabolic activity at Cmax: HDIs in clinical trials, tested at their Cmax, with and without MAP; for effect in initial screen: 48 hours, all three cell lines
Description: (§1) Khanna DVM, PhD (NCI). […] Medium was sterile filtered before use.
(§2) Highly metastatic osteosarcoma cells cultured in monolayers at 50% to 80% confluence were lifted with Accutase (Innovative Cell Technologies, Inc., cat. #NC9839010), resuspended in media, and diluted to the desired concentration. […] Following cell seeding, plates were centrifuged (1,000 g for 10 minutes at 4°C) and then incubated at 37°C with 5% CO2. […] Then, 100 μL drug treatment or vehicle was added to each well. […] Resazurin reduction on day 2 by vehicle-treated sarcospheres was compared with resazurin reduction on day 0 to calculate sarcosphere growth without drug over 2 days in selected experiments.
(§3) Plates were incubated at 37°C in 5% CO2 for 2 or 6 hours.
(§4) Sarcospheres were matured for 24 hours and then treated for 48 hours with media containing 10 µmol/L of each drug and 0.1% DMSO. […] Growth inhibition represents a more clinically translatable measure for screening studies in which a value of 0% represents stable disease since the start of treatment, values of 0% to 100% represent progression in which 100% is the untreated control, and values less than 0% represent regression in which −100% represents blank wells without sarcospheres.

[2] = cited from earlier work
[3] = test system: spheroids derived from 65 pediatric patients with various types of cancer; parameters: method as in PMID 36575299; details: including seven osteosarcomas; cited from earlier work
[4] = test system: monolayers of either established osteosarcoma cell lines or PDX cell lines; parameters: method as in PMID 30395907, PMID 26601688, PMID 37457661, PMID 35411591; details: cited from earlier work
LM7 sarcospheres = test: Sarcosphere resazurin metabolic activity (initial and secondary screens); format: cell-based, human; details: for activity in combination with MAP: Bliss curve fitting, LM7
Description: as §1, §2, §3, §4

CN(C)Cc1ccc(S(=O)(=O)n2ccc(/C=C/C(=O)NO)c2)cc1 [resminostat]
effect on sarcosphere metabolic activity at Cmax [1]: most effective

CC[C@@]1(O)C(=O)OCc2c1cc1n(c2=O)Cc2cc3c(CN(C)C)c(O)ccc3nc2-1 [topotecan]
rank in initial screen ([1]; 10 μmol/L): ranked eighth | Cmax [2]: 6.5 nM

CC(C)[C@H](C(=O)Nc1ccc(C(=O)NO)cc1)c1ccccc1 [AR-42]
effect on sarcosphere metabolic activity at Cmax [1]: most effective

Cc1[nH]c2ccccc2c1CCNCc1ccc(/C=C/C(=O)NO)cc1 [panobinostat]
rank of 75 drugs [3]: fifteenth | standing in four independent screens [4]: among the top hits

CCN(CC)Cc1ccc2cc(COC(=O)Nc3ccc(C(=O)NO)cc3)ccc2c1 [givinostat]
effect on sarcosphere metabolic activity at Cmax [1]: weakly inhibited

Nc1ccccc1NC(=O)c1ccc(CNc2nccc(-c3cccnc3)n2)cc1 [mocetinostat]
effect on sarcosphere metabolic activity at Cmax [1]: weakly inhibited

COc1cccc2c1C(=O)c1c(O)c3c(c(O)c1C2=O)C[C@@](O)(C(=O)CO)C[C@@H]3O[C@H]1C[C@H](N)[C@H](O)[C@H](C)O1 [doxorubicin]
effect in initial screen ([1]; 10 μmol/L): effective

CC(C)C[C@H](NC(=O)[C@H](Cc1ccccc1)NC(=O)c1cnccn1)B(O)O [bortezomib]
rank of 75 drugs [3]: nineteenth | standing in four independent screens [4]: among the top hits

CCCCc1nc2cc(/C=C/C(=O)NO)ccc2n1CCN(CC)CC [pracinostat]
effect on sarcosphere metabolic activity at Cmax [1]: weakly inhibited

CO[C@H]1C[C@@H]2CC[C@@H](C)[C@@](O)(O2)C(=O)C(=O)N2CCCC[C@H]2C(=O)O[C@H]([C@H](C)C[C@@H]2CC[C@@H](OCCO)[C@H](OC)C2)CC(=O)[C@H](C)/C=C(\C)[C@@H](O)[C@@H](OC)C(=O)[C@H](C)C[C@H](C)/C=C/C=C/C=C/1C [everolimus]
effect in initial screen ([1]; 10 μmol/L): little or no effect

CC(C)C[C@H](NC(=O)[C@H](CCc1ccccc1)NC(=O)CN1CCOCC1)C(=O)N[C@@H](Cc1ccccc1)C(=O)N[C@@H](CC(C)C)C(=O)[C@@]1(C)CO1 [carfilzomib]
rank of overall mean of the three Cmax/ED50 ratios among the 13 drugs ([1]; without MAP): highest overall mean | standing in four independent screens [4]: among the top hits

Cc1ccc(C(=O)Nc2ccc(CN3CCN(C)CC3)c(C(F)(F)F)c2)cc1C#Cc1cnc2cccnn12 [ponatinib]
activity in combination with MAP (LM7 sarcospheres): additive-to-synergistic activity

CN(C)Cc1c(C(=O)NCCOc2ccc(C(=O)NO)cc2)oc2ccccc12 [abexinostat]
effect on sarcosphere metabolic activity at Cmax [1]: weakly inhibited

N.N.[Cl][Pt][Cl] [cisplatin]
effect in initial screen ([1]; 10 μmol/L): no detectable effect

COc1cc2nccc(Oc3ccc(NC(=O)C4(C(=O)Nc5ccc(F)cc5)CC4)cc3)c2cc1OC [Cabozantinib, cabozantinib]
rank in initial screen (LM7 sarcospheres; 10 μmol/L): ranked fifteenth

Cn1cc(CNCC2CCN(c3ncc(C(=O)NO)cn3)CC2)c2ccccc21 [quisinostat]
effect on sarcosphere metabolic activity at Cmax [1]: weakly inhibited

O=C(CCCCCCC(=O)Nc1ccccc1)NO [vorinostat]
activity in combination with MAP (LM7 sarcospheres): additive-to-synergistic activity
